Assay results from patent US20150320782A1, “Methods, compositions and kits for treating, modulating, or preventing ocular angiogenesis or fibrosis in a subject using a galectin protein inhibitor” (TUFTS UNIVERSITY, priority 2012, published 2015).
Values joined by “and” are separate entries in the source; they are usually repeats but may differ in a detail not shown here. Equal entries are not always repeated. “Also recorded” adds a separate entry of the source.

Key:
[1] = test system: TM cells on galectin-8 coated wells; conditions: cited from earlier work
[2] = test system: endothelial cell (EC) spheroids (HUVEC); type: cell-based
Experimental: Methyl cellulose powder (6 g) was autoclaved with stirring using a magnetic bar in a 500 mL bottle. The powder was dissolved in 250 mL of DMEM medium at 60° C. with stirring for 30 minutes, and then 250 mL DMEM at room temperature was added and the mixture was stirred for two hours at 4° C. The resulting mixture was then aliquoted into 50 mL cylindrical tubes and centrifuged (6170 revolutions per minute) for two hours at room temperature to remove debris interfering with spheroid formation. The clear supernatant was collected from the centrifuged tubes.
Endothelial cells (EC) were cultured in containers and were detached from the container surfaces with 0.25% trypsin. The pH of the trypsinized EC cells was neutralized with DMEM. Spheroid solution was prepared in tubes by combining 3.75 mL of methylcellulose, 1.75 mL FBS, 17.5 μl pen/strep, and […] endothelial cells, and adding DMEM to bring the total volume to 17.5 mL. The spheroid solution was mixed by inverting tubes, and 150 μl aliquots were added to each well of a 96 well plate using a multichannel pippettor and wide mouth tips. Spheroids were settled and were incubated for 24 hours at 37° C. in 5% CO2.
Each 96 well plate yielded spheroids sufficient for four wells of a 24 well plate. The collagen solution was prepared using 2.3 mL (3.9 mg/mL) collagen type 1, 400 μl 10×M199 medium, 200 μl FBS, and 1.1 mL water. The collagen solution was neutralized with sodium hydroxide using a color pH indicator. The methyl cellulose solution (4.5 mL) was combined with 1.5 mL DMEM and warmed to 37° C. in a water bath. EC spheroids were collected using a wide mouth pipette and centrifuged (700 revolutions per minutes) for three minutes at room temperature.
The resulting supernatant was removed, and two mL of methyl cellulose solution were added to the pellet. Neutralized collagen solution (2 mL) was added to the mixture, and mixed using a pipette carefully to avoid bubble formation.
An aliquot (1 mL) of the mixed collagen solution was added to four wells of a 24 well plate, and the plate was incubated at 37 C 5% CO2 for 30 minutes to polymerize the collagen. […] Control collagen samples were treated with 100 μl of EBM-2 and 25 ng/mL VEGF in EBM-2.
See Meyer et al. 2003 J Biol Chem. 278(18): 16347-55. Representative images of the incubated samples were obtained and the cumulative length in arbitrary units of the endothelial cell sprouts was determined by ImageJ processing and analysis procedures. The data was analyzed by Student's t-test (Table 2).

[3] = test system: HUVEC; assay: HUVEC viability by calcein AM and WST-1; type: cell-based, human; conditions: three hours treatment; TD139 5 μM, Triton X-100 0.1%
Experimental: The cell viabilities of the treated HUVEC and control HUVEC were determined with each of calcein AM and WST-1, two systems used to determine cell viability. Calcein AM was added to a group of treated HUVEC, which were incubated for 30 minutes (FIG. 14A). Another group of treated HUVEC were incubated for two hours with WST-1, a tetrazolium salt used for determining cell proliferation and is an indicator or cell viability (FIG. 14B). Data are plotted with mean±SEM and analyzed with one-way ANOVA. ***P<0.001 vs control. Fluorescence emission was detected by a spectrophotometer for each treated group contacted with either calcein AM or WST-1.

[4] = test system: mouse corneas; assay: Silver nitrate cautery-induced corneal neovascularization, TD139; type: in vivo; conditions: TD139 325 ng sub-conjunctival every other day, 50 μM eye drops daily; day five after cautery; control about 40%
Description: FIG. 11A is a drawing of an experimental regimen for drug administration in murine subjects strain C57B/6L. […] Silver nitrate was applied on day zero to cauterize the eyes of the subjects. Mice were sacrificed on day five, and flat mounts of corneas were stained with anti-CD31 to visualize blood vessels. Data shown in FIG. 11 B-C were from subjects treated as described in FIG. 11A.
Neovascularization in the eye was induced in mouse corneas by cauterization using silver nitrate. […] Control subjects were sub-conjunctivally injected with vehicle only (PBS containing 0.5% DMSO only).
After five days of either sub-conjunctival injection treatment or eye drop treatment, subjects were sacrificed, and flat mounts of corneas were excised, photographed, and stained with anti-CD31 to visualize blood vessels (FIG. 11B, magnification is ×100). The density of blood vessels covering the whole cornea was quantified by ImageJ and was analyzed with Student's t test (FIG. 11C).

[5] = test system: mouse corneas; assay: Alkali (sodium hydroxide) model of corneal fibrosis; conditions: vs PBS
Experimental: C57BJ/6 mice were anesthetized by intraperiteoneal injection of a mixture of ketamine and xylazine. Corneas of the subjects were topically anesthetized by applying an eye drop of proparacain. 1.5 μl drop of 0.15M sodium hydroxide was applied for one minute to the central cornea of each subject. Each eye was immediately washed extensively in PBS, and corneal epithelium and limbal epithelium were gently removed with an ALGEBRUSH™ optical device (Storz Ophthalmic Instruments, St. Louis, Mo.). Each cornea was covered with an antibiotic ointment. […] Control subjects were injected subconjunctivally with control vehicle PBS. Corneas were visualized and analyzed for opacity, and protein markers for fibrosis were quantified as described below.
Mice were sacrificed at day 14 post surgery using a mixture of ketamine and xylazine. Mouse corneas were dissected and lysed in ice-cold lysis buffer containing 5 mM NaF, 1 mM PMSF, 1 mM DTT, 20 mM HEPES, 1 mM EDTA, 400 mM NaCl, 1 mM EGTA, 0.1% NP-40, and a protease inhibitor cocktail product (Roche). Aliquots of corneal protein (20 μg) were loaded to each lane of a gel and transferred onto a nitrocellulose membrane. Blots were probed overnight at 4° C. with either a rabbit antibody specific for α-smooth muscle actin (10,000 dilution; Abcam Inc., Cambridge, England), or with a control antibody specific for β-actin. The blots were extensively washed and were incubated with goat anti rabbit IRDye 800CW antibody (1:10,000 dilution; LI-Cor Biosciences; Lincoln Nebr.). Membranes were scanned and quantified using an Odessey imaging system (Li-Cor Biosciences).
C57BJ/6 mice were anesthetized by intraperiteoneal injection of ketamine and xylazine mixture. […]
Subjects were sacrificed on day fourteen after alkalisurgery using a mixture of ketamine and xylazine. […] The membranes were washed and incubated with goat anti rabbit IRDye 800CW antibody (1:10,000; Li-Cor Inc.), the membranes were scanned and quantified with Odessey imaging system (Li-Cor Inc.).
SMA (smooth muscle actin) is a marker of corneal fibrosis. […] Opacity of the eye was scored on day 7 and day 14. […]

[6] = test system: HUVEC spheroids; assay: VEGF-A-induced HUVEC spheroid sprouting in type I collagen gels; type: cell-based, human; conditions: VEGF-A 100 ng/ml; TD139 0.1, 1, 5 and 10 μM; 24 hours
Experimental: HUVEC spheroids were prepared and seeded into type I collagen gels. […] Control collagen samples were treated with 100 μl of EBM-2 and 25 ng/mL VEGF in EBM-2. […] After a 24 hour incubation, spheroids were stained with calcein AM dye and photographed by a fluorescent microscope. Cumulative sprout lengths for HUVEC in gels were quantified by ImageJ.
HUVEC spheroids were prepared as described in examples herein, and the spheroids were seeded into type I collagen gels. […] Control spheroids were treated with neither VEGF-A nor TD139. After 24 hours of treatment, spheroids were stained with calcein AM, a cell-permeant dye that indicates cell viability in eukaryotic cells (Invitrogen Inc.), and the spheroids were photographed by a fluorescent microscope. Cumulative sprout lengths were quantified by ImageJ.

[7] = test system: mouse retinas; assay: Alkali (sodium hydroxide) model, retinal gliosis (GFAP western blot); conditions: 10 μl of 50 mM TD139 subconjunctival daily for 14 days; vs PBS
Experimental: Corneas of murine subjects were contacted with sodium hydroxide. […] Control subjects were injected subconjunctively with PBS control vehicle only. Subjects were sacrificed by ketamine and xylazine on day 14 post surgery. […] Aliquots of retinal protein (30 μg) from lysates, or a control β-actin material were loaded to gels and transferred onto nitrocellulose membranes. Blots were probed overnight at 4° C. with rabbit anti mouse antibody specific for glial fibrillary acidic protein (GFAP; 50,000 dilution; Abcam Inc.; FIG. 18 top row), or with a control antibody specific for β-actin. […] Control blots were probed with rabbit antibody specific for β-actin (FIG. 18 bottom row). The probes were washed and were incubated with goat anti rabbit IRDye 800CW antibody (1:10,000 dilution; LI-Cor Biosciences). Membranes were scanned and quantified using an Odessey imaging system (Li-Cor Biosciences).
C57BJ/6 mice were anesthetized by intraperiteoneal injection of ketamine and xylazine mixture. Corneas were topically anesthetized by application of proparacain eye drop. […]
Subjects were sacrificed on day fourteen after alkalisurgery using a mixture of ketamine and xylazine. […] The membranes were washed and incubated with goat anti rabbit IRDye 800CW antibody (1:10,000; Li-Cor Inc.), the membranes were scanned and quantified with Odessey imaging system (Li-Cor Inc.). […]

[8] = target: recombinant galectin-1 (Homo sapiens, UniProt P09382); assay: Microtiter plate binding assay with galectin receptor-HRP conjugate, galectin-1; conditions: plate coated with recombinant galectin-1
[9] = test system: VEGFR2; assay: VEGFR2 expression in HUVEC by western blot; type: cell-based, human; conditions: 10 μM TD139, six hours
Experimental: Cell lysates were analyzed by electrophoresis in 4-20% SDS-PAGE gels. The gels were transferred to western blot membranes, and were probed with anti-VEGFR-2 antibody (FIG. 15 top row) or β-actin antibody (FIG. 15 bottom row).
Control HUVEC were not treated with TD139. Cell lysates were analyzed using gel electrophoresis (4-20% SDS-PAGE gels), and the membrane blots were probed with either anti-VEGFR-2 antibodies or β-actin antibodies.

[10] = target: recombinant galectin-3 (Homo sapiens, UniProt P17931); assay: Microtiter plate binding assay with galectin receptor-HRP conjugate, galectin-3; conditions: plate coated with recombinant galectin-3
Experimental: Microtiter plate wells were coated with recombinant galectin-1 or galectin-3 (10 μg/ml, 50 μl/well), and then washed with wash solutions containing PBS and detergent. The wells were blocked with BSA, and washed with wash solution/buffer. […] Control wells included PBS only. An amount of galectin receptor-HRP conjugate (100 μL/well, 1 mg/mL) specific for either galectin-1 or galectin-3 was added to the respective wells. The wells were incubated for one hour and then washed with buffer at room temperature. The horse-radish peroxidase enzyme reaction was performed using a TMB-peroxidase substrate kit (BioRad Inc.). The reaction was stopped after one hour by addition of 1N sulfuric acid (100 μL/well) and the optical density was read at 450 nm.

[11] = test system: HUVEC; assay: VEGF-A-induced endothelial cell migration (chemotaxis chamber); type: cell-based, human; conditions: three hours
Experimental: FIG. 13B is a bar graph showing migration distance (migration index, ordinate) of HUVEC cells treated with (abscissa) […] as in FIG. 13A. HUVECs were serum starved overnight, detached with proteolytic and collagenolytic enzyme product Accutase™ (Millipore Inc.), resuspended in 1% FBS/M199 and then added to the upper chamber of a migration testing system. […] After three hours of incubation, HUVECs that migrated to lower side of the membrane were counted.
HUVEC were incubated without serum overnight, detached with Accutase, re-suspended in 1% FBS/M199 and added in an upper chamber separated from a bottom chamber by a membrane. […] Control HUVEC were treated with neither VEGF-A nor TD139.
Data were plotted as mean±SEM and analyzed with one-way ANOVA. *P<0.05 vs control; ***P<0.001 vs control; ^###P<0.001 vs VEGF-A.

[12] = target: T1, galectin-1 / VEGFR-2 (Homo sapiens, UniProt P09382); assay: HUVEC lysate VEGFR-2 pull-down on galectin-1 agarose beads; type: binding; conditions: 0.1 M saccharide
T1 construct: host or cells: VEGFR-2: endogenous, HUVEC lysate
Description: FIG. 12 is a photomicrograph of a western blot showing that galectin-1 and galectin-3 interacted with VEGFR-2. […] Control samples contained only HUVEC lysates or beads. Bound material was eluted with Laemmli sample buffer, added to 4-20% SDS-PAGE gels, and electrophoresed. Gels were transferred onto membrane blots, which was then probed with anti-VEGFR-2 antibody. VEGFR-2 antibody was observed bound to the HUVEC lysate control and not to the bead only control. […] Thus, the interaction between VEGFR-2 and galectin-1 and galectin-3 was observed herein to be carbohydrate-dependent.
Control HUVEC lysates were incubated with galectin-1 agarose beads or galectin-3 agarose beads only. The beads were rinsed to remove unbound material.
HUVEC lysate material bound to the beads was eluted with the Laemmli sample buffer and was analyzed using gel electrophoresis (4-20% SDS-PAGE gels). Following blocking, membrane blots were probed using anti-VEGFR-2 antibody (FIG. 12). […] Further, the VEGFR2 HUVEC lysate binding to the beads was […] for beads treated with sucrose, a noncompeting saccharide.

[13] = target: T2, galectin-3 / VEGFR-2 (Homo sapiens, UniProt P17931); assay: HUVEC lysate VEGFR-2 pull-down on galectin-3 agarose beads; type: binding; conditions: 0.1 M saccharide
T2 construct: host or cells: VEGFR-2: endogenous, HUVEC lysate
T2 sequence (P17931 whole entry): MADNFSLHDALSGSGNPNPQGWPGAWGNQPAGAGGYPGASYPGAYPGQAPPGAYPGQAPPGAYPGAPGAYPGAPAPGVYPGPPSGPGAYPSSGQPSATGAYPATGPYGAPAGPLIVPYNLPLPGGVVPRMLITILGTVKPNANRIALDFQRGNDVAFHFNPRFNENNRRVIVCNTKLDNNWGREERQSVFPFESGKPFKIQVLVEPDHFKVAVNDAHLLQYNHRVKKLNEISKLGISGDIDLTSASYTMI

T1 sequence (P09382 whole entry): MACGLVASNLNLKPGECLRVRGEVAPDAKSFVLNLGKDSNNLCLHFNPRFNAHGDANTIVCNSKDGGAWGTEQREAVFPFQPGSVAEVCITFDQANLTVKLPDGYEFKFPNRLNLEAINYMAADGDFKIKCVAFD
recombinant galectin-1, sequence (P09382 whole entry): as above
recombinant galectin-3, sequence (P17931 whole entry): as the sequence (P17931 whole entry) above

## CC(=O)N[C@H]1[C@H]([C@H](O)[C@H](O)CO)O[C@@](O[C@H]2[C@@H](O)[C@@H](CO)O[C@@H](O[C@H]3[C@H](O)[C@@H](NC(C)=O)C(O)O[C@@H]3CO)[C@@H]2O)(C(=O)O)C[C@@H]1O (stereo partly shown) [NeuAca2-3Galβ1-4GlcNAc]
[1]
  Spreading of TM cells on galectin-8 protein coated wells: inhibited

## CC(=O)N[C@H]1[C@H]([C@H](O)[C@H](O)CO)O[C@](OC[C@H]2O[C@@H](O[C@H]3[C@H](O)[C@@H](NC(C)=O)C(O)O[C@@H]3CO)[C@H](O)[C@@H](O)[C@H]2O)(C(=O)O)C[C@@H]1O (stereo partly shown) [NeuAca2-6Galβ1-4GlcNAc]
[1]
  Spreading of TM cells on galectin-8 protein coated wells: no effect

## OC[C@H]1O[C@@H](S[C@@H]2O[C@H](CO)[C@H](O)[C@H](n3cc(-c4cccc(F)c4)nn3)[C@H]2O)[C@H](O)[C@@H](n2cc(-c3cccc(F)c3)nn2)[C@H]1O [TD139, bis-{3-deoxy-3-[4-(3-fluorophenyl)-1H-1,2,3-triazol-1-yl]-β-D-galactopyranosyl}sulfane]
[2]; 10 μM TD139, compared to VEGF alone
  Decrease of VEGF-mediated EC sprouting: about one-third
[2]; 50 μM TD139
  Reduction of the extent of VEGF-mediated sprouting: about two-thirds
[3]
  Calcein AM fluorescence (cell viability): comparable calcein AM fluorescence
  WST-1 signal (cell viability): comparable cell viability
[4]
  Density of blood vessels covering the cornea (percent area): 28%
[5]; 10 μl of 50 mM TD139 subconjunctival daily for 14 days after alkali
  Corneal opacity (score 0-4): area of opacity less than about the site of the pupil; also recorded: reduced corneal opacity
[5]; 10 μl of 50 mM TD139 subconjunctival daily for 14 days
  Reduction of α-SMA (smooth muscle actin) expression in corneal lysates: 30%
[6]
  VEGF-A-induced sprouting (cumulative sprout length): significantly inhibited
[7]
  GFAP expression in retinal lysates: reduced expression of GFAP
[8]
  Binding to galectin-1: specifically bound
[9]
  Total protein expression of VEGFR2: little or no effect
[10]
  Binding to galectin-3: specifically bound
[11]; TD139 1 to 5000 nM, dose-dependent
  VEGF-A-induced chemotaxis and migration: significantly abrogated
[11]; VEGF-A 100 ng/mL
  Concentration as low as which VEGF-A-induced chemotaxis was significantly abrogated: 1 nM

## OC[C@H]1O[C@@H](O[C@H]2[C@H](O)[C@@H](O)C(O)O[C@@H]2CO)[C@H](O)[C@@H](O)[C@H]1O (stereo partly shown) [lactose]
[12]
  Inhibition of VEGFR-2 binding to galectin-1 beads: inhibited
[1]
  Adhesion of TM cells to galectin-8 coated wells: inhibited or prevented

## OC[C@H]1O[C@@](CO)(O[C@H]2O[C@H](CO)[C@@H](O)[C@H](O)[C@H]2O)[C@@H](O)[C@@H]1O [sucrose]
[12]
  Inhibition of VEGFR-2 binding to galectin-1 beads: not inhibited
[13]
  Inhibition of VEGFR-2 binding to galectin-3 beads: not inhibited
[1]
  Adhesion of TM cells to galectin-8 coated wells: not inhibited

## Triton™ X-100
[3]
  Calcein AM fluorescence (cell viability): reduced fluorescence
  WST-1 signal (cell viability): reduced WST-1 fluorescence

## VEGF
[2]; VEGF 25 ng/mL only
  Fold change in capillary sprouting of EC over control cells not contracted with VEGF and inhibitor: 650 fold and 921 fold and 604 fold and 800 fold
  Formation of endothelial cell sprouts compared to medium only: four-fold
